Data set [1] concerns cytochrome P450 enzymes, in particular 3A4. As to conditions: cited from earlier work.
The test system of data set [2] is heart transplant patients. As to conditions: cited from earlier work.
The subject of another data set is patients. The note with it: cited from earlier work.
Data set [3] has as its system mixed hyperlipidaemia and hypertriglyceridaemia in patients. The data set is described as follows: Clinical study of the Agent dosed with a fibrate drug. It is filed as in vivo, human.
For a further data set, the system named is human hepatocytes. The data set is described as follows: Metabolism of [14C]-labelled Agent by human hepatocytes. It is filed as in vitro ADME. As to conditions: human hepatocytes in culture, 0-48 hours. On the procedure:
Cultures were terminated with ethanol after 0, 6, 24 and 48 hours of incubation and stored at approximately −20° C. until analysed. The metabolic competence of the hepatocytes was confirmed at the time of incubation by examining their ability to metabolise [^14C]-ethoxycoumarin (25 μM); aliquots were removed into methanol at the same time points as for the test compound.
Following incubation of [^14C]-ZD4522 with hepatocytes, metabolite profiles were generated by High Performance Liquid Chromatography (HPLC). The ability of hepatocytes to metabolise [^14C]-ethoxycoumarin was confirmed by HPLC.

The subject of data set [4] is hypercholesterolaemia in patients following transplantation. Kind of data set: Clinical study of the Agent in post-transplant patients on immunosuppressive therapy. It is filed as in vivo, human. How it is done: Trial Design This is a multicenter, randomized, double-blind, parallel-group clinical trial. […] Patients who have had their dose titrated up to 40 mg may have their dose titrated back down to 20 mg at the investigator's discretion.

[5] abbreviates: patients undertaking immunosuppressive therapy.

In the case of `CC[C@H](C)C(=O)O[C@H]1C[C@H](O)C=C2C=C[C@H](C)[C@H](CC[C@@H](O)C[C@@H](O)CC(=O)O)[C@H]21` [pravastatin], the “rate of metabolism by P450” value in data set [1] is listed as “sufficiently low”.

In the case of `CC[C@H](C)C(=O)O[C@H]1C[C@@H](C)C=C2C=C[C@H](C)[C@H](CC[C@@H]3C[C@@H](O)CC(=O)O3)[C@H]21` [Lovastatin, lovastatin], the “cholesterol levels in heart transplant patients” value in data set [2] was “lower cholesterol levels”.

For `Cc1ccc(C)c(OCCCC(C)(C)C(=O)O)c1` [gemfibrozil], in the data set on patients (gemfibrozil when a statin is also administered), the “patients with myositis-flu like syndrome” value was 5%.

In the case of `CC(C)c1c(C(=O)Nc2ccccc2)c(-c2ccccc2)c(-c2ccc(F)cc2)n1CC[C@@H](O)C[C@@H](O)CC(=O)O` [atorvastatin], the “patients with clinically important (>3 times ULN) elevations in serum ALT” value in the data set on patients (low doses of atorvastatin, European SmPC) was 0.8%.

With `CC(C)c1nc(N(C)S(C)(=O)=O)nc(-c2ccc(F)cc2)c1/C=C/[C@@H](O)C[C@@H](O)CC(=O)O` [Agent, (E)-7-[4-(4-fluorophenyl)-6-isopropyl-2-[methyl(methylsulfonyl)amino]pyrimidin-5-yl](3R,5S)-3,5-dihydroxyhept-6-enoic acid], in data set [3] (combined with a fibrate drug), the “treating mixed hyperlipidaemia and hypertriglyceridaemia when combined with a fibrate drug” value was “extremely effective”. Also, in data set [3] (patients also taking a fibrate drug), the “side effects of concomitant dosing of the Agent and the fibrate drug” value is “without any clinically significant side effects”. Moreover, the “metabolism of the Agent by whole hepatocytes” value in the data set on human hepatocytes is “not significantly metabolised”. Moreover, in data set [4] (patients following transplantation), the “treating hypercholesterolaemia in patients following transplantation” value is reported as “extremely effective”. In addition, in data set [4] (setting [5]), the “level of cholesterol lowering compared with what was previously achieved, such as by pravastatin” value is recorded as “much higher levels of cholesterol lowering”; the “side effects of concomitant dosing of the Agent and immunosuppressive drug(s)” value is “without any clinically significant side effects”.

The values are drawn from patent US6982157B1, “Drug combinations comprising (E)-7-[4-(4-fluorophenyl)-6-isopropyl-2-[methylsulfonyl)amino] pyrimidin-5-yl] (3r,5s) -3,5-dihydroxyhept-6-enoic acid and an inhibitor, inducer or substrate of p450 isoenzyme 3A4” (AstraZeneca AB, priority 1999, dated 2006).
